In ChEMBL document CHEMBL5233285, “Recent Update on the Development of PCSK9 Inhibitors for Hypercholesterolemia Treatment” (J Med Chem, 2022):
Each block holds one compound with its values, some of them ahead of it. Numbered stars: 1 amine (or outer) side, 2 acyl side, 3 side chain; on linkers, the order of the positions; unused ones are H or OH. Square brackets hold non-standard residues; d marks the D form. Peptide text beside a SMILES is read from it. X1 = O=C(C1(N[*:1])CCC(c2ccccc2)CC1)[*:2]; hArg = N=C(N)NCCCC[C@H](N)C(=O)O

Columns and labels:
[1] = test system: Homo sapiens; experiment: Hypocholesterolemic activity in human assessed as reduction in LDL-C level at 300 mg, QD administered for 28 days; assay type: functional; design: scale not given: the % may be the effect or the level left; settings: time 28 day
[2] = test system: Homo sapiens; experiment: Hypocholesterolemic activity in human assessed as reduction in TC level at 300 mg, QD administered for 28 days; assay type: functional; design: scale not given: the % may be the effect or the level left; settings: time 28 day
[3] = test system: Homo sapiens; experiment: Hypocholesterolemic activity in human assessed as reduction in ApoB level at 300 mg, QD administered for 28 days; assay type: functional; design: scale not given: the % may be the effect or the level left; settings: time 28 day
[4] = target: T1, PCSK9/LDLR (Homo sapiens, UniProt Q8NBP7); experiment: Inhibition of PCSK9-LDLR (unknown origin) protein-protein interaction; assay type: protein assay
T1 sequence (Q8NBP7 31-152 limits assumed): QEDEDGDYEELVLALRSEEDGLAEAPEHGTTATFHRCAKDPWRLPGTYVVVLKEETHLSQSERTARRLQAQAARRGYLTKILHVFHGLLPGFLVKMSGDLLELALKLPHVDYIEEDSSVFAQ
T1 sequence (Q8NBP7 153-692 limits assumed): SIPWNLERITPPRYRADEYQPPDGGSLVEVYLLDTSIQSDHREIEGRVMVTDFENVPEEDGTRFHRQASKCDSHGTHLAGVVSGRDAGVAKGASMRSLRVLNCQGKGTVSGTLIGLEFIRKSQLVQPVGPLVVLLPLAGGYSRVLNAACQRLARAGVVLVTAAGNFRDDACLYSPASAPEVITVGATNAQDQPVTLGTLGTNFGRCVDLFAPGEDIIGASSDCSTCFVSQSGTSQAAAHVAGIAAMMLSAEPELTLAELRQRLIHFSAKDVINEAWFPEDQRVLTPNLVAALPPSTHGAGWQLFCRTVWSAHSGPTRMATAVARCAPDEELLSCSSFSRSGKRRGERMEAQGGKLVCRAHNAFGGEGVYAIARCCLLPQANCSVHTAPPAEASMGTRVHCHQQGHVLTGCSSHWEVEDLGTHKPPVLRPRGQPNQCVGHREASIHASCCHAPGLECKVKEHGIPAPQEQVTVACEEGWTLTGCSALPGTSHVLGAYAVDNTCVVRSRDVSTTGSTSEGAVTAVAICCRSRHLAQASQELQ
T1 sequence (P01130 22-860 partner limits assumed): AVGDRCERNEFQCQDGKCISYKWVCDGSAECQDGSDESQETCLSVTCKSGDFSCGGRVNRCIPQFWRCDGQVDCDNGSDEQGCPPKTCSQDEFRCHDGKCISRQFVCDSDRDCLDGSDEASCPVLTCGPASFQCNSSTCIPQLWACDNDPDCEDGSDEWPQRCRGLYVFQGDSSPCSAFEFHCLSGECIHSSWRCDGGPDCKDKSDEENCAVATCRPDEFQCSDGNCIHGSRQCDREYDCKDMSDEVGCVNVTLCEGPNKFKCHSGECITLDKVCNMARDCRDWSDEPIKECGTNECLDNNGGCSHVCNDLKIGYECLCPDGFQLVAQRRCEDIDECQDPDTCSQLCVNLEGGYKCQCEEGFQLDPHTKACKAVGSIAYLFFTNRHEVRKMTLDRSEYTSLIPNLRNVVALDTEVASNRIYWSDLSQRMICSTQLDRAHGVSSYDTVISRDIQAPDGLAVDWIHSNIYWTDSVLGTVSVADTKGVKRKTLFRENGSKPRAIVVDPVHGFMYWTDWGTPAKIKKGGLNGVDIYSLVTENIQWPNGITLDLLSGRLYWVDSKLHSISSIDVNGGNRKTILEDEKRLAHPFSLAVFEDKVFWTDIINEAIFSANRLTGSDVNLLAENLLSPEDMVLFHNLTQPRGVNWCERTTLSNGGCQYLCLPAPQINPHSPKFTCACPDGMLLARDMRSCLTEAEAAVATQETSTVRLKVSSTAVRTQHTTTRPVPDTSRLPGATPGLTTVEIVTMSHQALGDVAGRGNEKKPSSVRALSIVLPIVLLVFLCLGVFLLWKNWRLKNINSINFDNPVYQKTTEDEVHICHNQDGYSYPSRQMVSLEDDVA

[5] = target: T2, Proprotein convertase subtilisin/kexin type 9 (Homo sapiens, UniProt Q8NBP7); experiment: Binding affinity to human PCSK9
T2 sequence (Q8NBP7 31-152 limits assumed): as the sequence (Q8NBP7 31-152 limits assumed) above
T2 sequence (Q8NBP7 153-692 limits assumed): as the sequence (Q8NBP7 153-692 limits assumed) above

[6] = target: T2, Proprotein convertase subtilisin/kexin type 9; experiment: Inhibition of human PCSK9
[7] = target: T2, Proprotein convertase subtilisin/kexin type 9; experiment: Inhibition of PCSK9 mediated LDLR degradation in human HepG2 cells assessed as restoration of LDLR; assay type: cell-based
[8] = target: T2, Proprotein convertase subtilisin/kexin type 9; experiment: Inhibition of human PCSK9 preincubated for 30 mins followed by EGF(A) addition and measured after 2 hrs by TR-FRET assay
[9] = target: T2, Proprotein convertase subtilisin/kexin type 9; experiment: Inhibition of human PCSK9 preincubated for 30 mins followed by ab20 addition and measured after 2 hrs by TR-FRET assay
[10] = target: T2, Proprotein convertase subtilisin/kexin type 9; experiment: Inhibition of human PCSK9 preincubated for 30 mins followed by LDLR addition and measured after 2 hrs by TR-FRET assay
[11] = target: T3, 3-hydroxy-3-methylglutaryl-coenzyme A reductase (Homo sapiens, UniProt P04035); experiment: Inhibition of HMG CoA reductase (unknown origin)
T3 sequence (P04035 whole entry): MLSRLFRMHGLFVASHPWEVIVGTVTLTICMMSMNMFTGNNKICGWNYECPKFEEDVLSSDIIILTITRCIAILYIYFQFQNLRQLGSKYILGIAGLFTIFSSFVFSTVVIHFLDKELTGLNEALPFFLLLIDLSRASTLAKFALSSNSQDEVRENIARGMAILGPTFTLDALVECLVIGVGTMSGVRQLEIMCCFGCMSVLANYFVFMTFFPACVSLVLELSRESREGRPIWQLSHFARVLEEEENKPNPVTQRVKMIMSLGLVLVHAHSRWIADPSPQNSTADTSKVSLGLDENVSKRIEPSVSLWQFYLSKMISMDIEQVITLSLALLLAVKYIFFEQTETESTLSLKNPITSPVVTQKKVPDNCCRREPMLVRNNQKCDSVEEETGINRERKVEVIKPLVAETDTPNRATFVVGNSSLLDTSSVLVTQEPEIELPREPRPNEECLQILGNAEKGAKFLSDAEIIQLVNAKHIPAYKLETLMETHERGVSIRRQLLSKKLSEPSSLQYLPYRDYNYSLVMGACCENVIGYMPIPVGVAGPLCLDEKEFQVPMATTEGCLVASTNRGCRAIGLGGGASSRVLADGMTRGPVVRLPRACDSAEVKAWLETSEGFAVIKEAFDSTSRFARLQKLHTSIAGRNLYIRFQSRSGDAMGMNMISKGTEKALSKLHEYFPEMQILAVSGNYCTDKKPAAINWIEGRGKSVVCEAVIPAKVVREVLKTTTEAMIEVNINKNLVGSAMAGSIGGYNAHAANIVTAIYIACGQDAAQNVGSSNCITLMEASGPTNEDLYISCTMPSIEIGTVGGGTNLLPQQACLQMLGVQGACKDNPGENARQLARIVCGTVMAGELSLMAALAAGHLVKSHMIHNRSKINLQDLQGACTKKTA

[12] = target: T2, Proprotein convertase subtilisin/kexin type 9; experiment: Inhibition of PCSK9 in human HepG2 cells assessed as restoration of LDLR at 1 uM relative to control; assay type: cell-based
[13] = target: T2, Proprotein convertase subtilisin/kexin type 9; experiment: Inhibition of PCSK9 in human HepG2 cells assessed as increase in LDL uptake at 1 uM relative to control; assay type: cell-based
[14] = organism: Homo sapiens; experiment: Hypocholesterolemic activity in human assessed as reduction in LDL-C level at 10 to 20 mg; assay type: functional; design: scale not given: the % may be the effect or the level left; settings: dose 10-20 mg
[15] = target: Proprotein convertase subtilisin/kexin type 9 (Mus musculus, UniProt Q80W65); experiment: Binding affinity to mouse PCSK9
Proprotein convertase subtilisin/kexin type 9 (Mus musculus, UniProt Q80W65), sequence (Q80W65 35-155 limits assumed): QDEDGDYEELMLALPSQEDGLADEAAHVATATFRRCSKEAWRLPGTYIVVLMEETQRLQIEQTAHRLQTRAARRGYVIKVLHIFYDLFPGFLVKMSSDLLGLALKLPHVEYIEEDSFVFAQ
Proprotein convertase subtilisin/kexin type 9 (Mus musculus, UniProt Q80W65), sequence (Q80W65 156-694 limits assumed): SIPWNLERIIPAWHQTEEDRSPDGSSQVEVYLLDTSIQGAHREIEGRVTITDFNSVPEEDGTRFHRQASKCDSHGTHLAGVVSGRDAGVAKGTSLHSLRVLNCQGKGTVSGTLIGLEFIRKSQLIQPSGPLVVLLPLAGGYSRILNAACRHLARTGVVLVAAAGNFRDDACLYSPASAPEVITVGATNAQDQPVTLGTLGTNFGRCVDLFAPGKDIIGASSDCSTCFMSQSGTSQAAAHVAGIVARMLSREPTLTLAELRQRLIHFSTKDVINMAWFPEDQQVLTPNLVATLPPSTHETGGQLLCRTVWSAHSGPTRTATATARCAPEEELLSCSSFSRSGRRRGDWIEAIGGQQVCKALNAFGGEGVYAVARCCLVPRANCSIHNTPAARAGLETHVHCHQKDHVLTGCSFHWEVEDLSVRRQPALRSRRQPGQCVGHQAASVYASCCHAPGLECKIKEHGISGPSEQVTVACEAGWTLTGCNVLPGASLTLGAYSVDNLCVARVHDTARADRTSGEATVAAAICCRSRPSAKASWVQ

[16] = target: T1, PCSK9/LDLR; experiment: Inhibition of PCSK9-LDLR protein-protein interaction in human HepG2 cells assessed as increase in LDL uptake; assay type: cell-based
[17] = target: T2, Proprotein convertase subtilisin/kexin type 9; experiment: Binding affinity to PCSK9 (unknown origin)

SMILES: COc1ccc2c(c1)CCN1Cc3c(ccc(OC)c3OS(=O)(=O)c3cccc(F)c3)C[C@H]21.Cl
Activity [1]: 26.3%
Activity [2]: 20.1%
Activity [3]: 17.4%

SMILES: CC(C)C[C@H](N)C(=O)N1CCC[C@H]1C(=O)N[C@@H](CCCCN)C(=O)N[C@@H](Cc1c[nH]cn1)C(=O)N[C@@H](CO)C(=O)N[C@@H](C)C(=O)N[C@@H](CC(=O)O)C(=O)O (H-LPKHSAD-OH)
IC50 [4]: 1700 nM
IC50 [11]: 175000 nM

SMILES: CC[C@H](C)[C@H](NC(=O)[C@@H](N)CC(C)C)C(=O)N[C@@H](CC(C)C)C(=O)N1CCC[C@H]1C(=O)N[C@@H](CCCCN)C(=O)N[C@@H](Cc1c[nH]cn1)C(=O)N[C@@H](CO)C(=O)N[C@@H](C)C(=O)N[C@@H](CC(=O)O)C(=O)O (H-LILPKHSAD-OH)
IC50 [4]: 1600 nM
IC50 [11]: 147000 nM

SMILES: C[C@H]1NC(=O)[C@H](CNC(=O)CCOCCOCC[N+](C)(C)C)NC(=O)CCSCc2cc3cc(c2)-n2cc(nn2)Cn2cc(c4cc(F)ccc42)C[C@@H]2NC(=O)[C@H](Cc4cccc(c4)C/C=C/CCO[C@H]4CCN(C2=O)[C@@H]4C(=O)N[C@@H]([C@@H](C)O)C(=O)N[C@@H](Cc2ccc(O)cc2)C(=O)N2CCC[C@@]2(C)C(=O)NCCSC3)NC1=O
Activity [14]: 65%

SMILES: CC(C)[C@@H]1NC(=O)[C@H](Cc2ccccc2)NC(=O)CSC[C@@H](C(=O)NCC(N)=O)NC(=O)[C@@H]2CCCN2C(=O)[C@H](CCCNC(=N)N)NC(=O)[C@H](CC(=O)O)NC(=O)[C@H](C)N(C)C(=O)[C@H](Cc2ccc(-c3ccccc3)cc2)NC(=O)[C@H](C)N(C)C(=O)[C@H](Cc2ccc(-c3ccccc3)cc2)NC(=O)[C@H]([C@@H](C)O)NC(=O)[C@H]([C@@H](C)O)NC(=O)[C@H](CO)NC1=O
Kd [5]: 0.3 nM
Kd [15]: 1 nM
EC50 [16]: 106 nM

SMILES: CC(C)C[C@H](C(=O)N1CCN([C@@H](CC(N)=O)C(=O)N[C@@H](CCCNC(=N)N)C(=O)C[C@H]2CCOC2=O)CC1)N1C(=O)N[C@@H](CC(=O)O)C1=O
Kd [17]: 24800 nM

Other lines, results leading:

IC50 [4]: 700 nM
SMILES: CC(C)C[C@H](NC(=O)[C@H](Cc1ccc(O)cc1)NC(=O)[C@@H](N)CC(C)C)C(=O)N1CCC[C@H]1C(=O)N[C@@H](CCCCN)C(=O)N[C@@H](Cc1c[nH]cn1)C(=O)N[C@@H](CO)C(=O)N[C@@H](CC(=O)O)C(=O)N[C@@H](CCCNC(=N)N)C(=O)N[C@@H](CC(=O)O)C(=O)O (H-LYLPKHSDRD-OH)

Kd [5]: 5.5 nM
IC50 [6]: 20 nM
EC50 [7]: 250 nM
IC50 [8]: > 50000 nM
SMILES: CC[C@H](C)[C@H](NC(=O)[C@H](CCC(N)=O)NC(=O)[C@H](CC(C)C)NC(=O)[C@H](CC(N)=O)NC(=O)[C@H](Cc1c[nH]c2ccccc12)NC(=O)[C@@H]1CCCN1C(=O)[C@H](CC(C)C)NC(=O)[C@H](CCCNC(=N)N)NC(=O)[C@H](CS)NC(=O)CNC(=O)[C@H](CO)NC(=O)CNC(=O)[C@@H](NC(=O)[C@H](Cc1c[nH]c2ccccc12)NC(=O)[C@H](CC(=O)O)NC(=O)[C@H](CC(C)C)NC(=O)[C@H](Cc1ccc(O)cc1)NC(=O)[C@H](CCC(=O)O)NC(=O)[C@H](CCC(=O)O)NC(=O)[C@H](Cc1c[nH]c2ccccc12)NC(=O)[C@H](CO)NC(=O)[C@@H](NC(=O)[C@H](Cc1ccccc1)NC(=O)[C@@H](NC(=O)[C@@H](N)[C@@H](C)O)C(C)C)[C@@H](C)O)C(C)C)C(=O)NCC(=O)N[C@@H](CC(C)C)C(=O)N1CCC[C@H]1C(=O)N[C@@H](CS)C(=O)O (H-TVFTSWEEYLDWVGSGCRLPWNLQIGLPC-OH)

Kd [5]: 390 nM
inhibition [7]: 50%
IC50 [9]: 40 nM
IC50 [8]: 720 nM
IC50 [10]: 1830 nM
SMILES: CC[C@H](C)[C@H](NC(=O)[C@H](CCCCNC(=N)N)NC(=O)[C@H](CCCCN)NC(=O)[C@H](CC(C)C)NC(=O)[C@H](CC(N)=O)NC(=O)[C@H](Cc1c[nH]c2ccccc12)NC(=O)C1(N)CCC(c2ccccc2)CC1)C(=O)NCC(=O)N[C@@H](CC(C)C)C(=O)N[C@@H](CC(C)C)C(=O)N[C@@H](CCCNC(=N)N)C(=O)O (stereo partly specified) (H-[X1]WNLK[hArg]IGLLR-OH)

IC50 [8]: > 50000 nM
SMILES: CC[C@H](C)[C@H](NC(=O)[C@H](CCCCNC(=N)N)NC(=O)[C@@H](NC(=O)[C@H](CC(C)C)NC(=O)[C@H](CC(N)=O)NC(=O)[C@H](Cc1c[nH]c2ccccc12)NC(=O)[C@@H]1CCCN1C(=O)[C@H](CCSC)NC(=O)[C@H](CC(C)C)NC(=O)[C@@H](N)CC(=O)O)C(C)C)C(=O)NCC(=O)N[C@@H](CC(C)C)C(=O)N[C@@H](CC(C)C)C(=O)N[C@@H](CCCNC(=N)N)C(=O)O (H-DLMPWNLV[hArg]IGLLR-OH)

IC50 [8]: > 50000 nM
SMILES: CC[C@H](C)[C@H](NC(=O)[C@H](CCCCNC(=N)N)NC(=O)[C@@H](NC(=O)[C@H](CC(C)C)NC(=O)[C@H](CC(N)=O)NC(=O)[C@@H](N)Cc1c[nH]c2ccccc12)C(C)C)C(=O)NCC(=O)N[C@@H](CC(C)C)C(=O)N[C@@H](CC(C)C)C(=O)N[C@@H](CCCNC(=N)N)C(=O)O (H-WNLV[hArg]IGLLR-OH)

IC50 [4]: 14500 nM
inhibition [12]: 75.3%
inhibition [13]: 88%
SMILES: CC(=O)N[C@H](C(=O)N[C@H](C(=O)N[C@@H](Cc1ccccc1)C(=O)N[C@@H](CCCNC(=N)N)C(=O)N[C@@H](CO)C(=O)N[C@@H](Cc1c[nH]c2ccccc12)C(=O)N[C@@H](CCC(=O)O)C(=O)N[C@@H](CCC(=O)O)C(=O)N[C@@H](Cc1ccc(O)cc1)C(=O)N[C@@H](CC(C)C)C(=O)N[C@@H](CC(=O)O)C(=O)N[C@@H](Cc1ccc(O)cc1)C(=O)N[C@H](C(N)=O)C(C)C)C(C)C)[C@@H](C)O (Ac-TVFRSWEEYLDYV-NH2)

IC50 [4]: 27100 nM
inhibition [12]: 89.9%
inhibition [13]: 99%
SMILES: CC(=O)N[C@H](C(=O)N[C@H](C(=O)N[C@@H](Cc1ccccc1)C(=O)N[C@H](C(=O)N[C@@H](CO)C(=O)N[C@@H](Cc1c[nH]c2ccccc12)C(=O)N[C@@H](CCC(=O)O)C(=O)N[C@@H](CCC(=O)O)C(=O)N[C@@H](C)C(=O)N[C@@H](CC(C)C)C(=O)N[C@@H](CC(=O)O)C(=O)N[C@@H](Cc1c[nH]c2ccccc12)C(=O)N[C@H](C(N)=O)C(C)C)[C@@H](C)O)C(C)C)[C@@H](C)O (Ac-TVFTSWEEALDWV-NH2)

IC50 [6]: 700 nM
IC50 [9]: 140 nM
SMILES: CC[C@H](C)[C@H](NC(=O)[C@H](CCCCNC(=N)N)NC(=O)[C@@H](NC(=O)[C@H](CC(C)C)NC(=O)[C@H](CC(N)=O)NC(=O)[C@H](Cc1c[nH]c2ccccc12)NC(=O)C1(N)CCC(c2ccccc2)CC1)C(C)C)C(=O)NCC(=O)N[C@@H](CC(C)C)C(=O)N[C@@H](CC(C)C)C(=O)N[C@@H](CCCNC(=N)N)C(=O)O (stereo partly specified) (H-[X1]WNLV[hArg]IGLLR-OH)

Kd [5]: 700 nM
inhibition [7]: 70%
IC50 [9]: 840 nM
IC50 [10]: 25000 nM
SMILES: CC[C@H](C)[C@H](NC(=O)[C@H](CCCCNC(=N)N)NC(=O)[C@@H](NC(=O)[C@H](CC(C)C)NC(=O)[C@H](CC(N)=O)NC(=O)[C@H](Cc1c[nH]c2ccccc12)NC(=O)CNC(=O)[C@@H]1CCCN1C(=O)[C@H](Cc1ccccc1)NC(=O)[C@H](CO)NC(=O)[C@H](CCC(=O)O)NC(=O)[C@@H](N)CCSC)C(C)C)C(=O)NCC(=O)N[C@@H](CC(C)C)C(=O)N[C@@H](CC(C)C)C(=O)N[C@@H](CCCNC(=N)N)C(=O)O (H-MESFPGWNLV[hArg]IGLLR-OH)
